Experimental data as given in patent publication US11337990B2, “Human milk oligosaccharides to promote growth of beneficial bacteria” (ABBOTT LABORATORIES, priority 2010, dated 2022).
“Also recorded” adds a separate entry of the source.

Tests used:
bifidobacteria strains = experiment: Bacterial growth assay (OD600), panel of 12 strains; assay type: cell-based, Bifidobacterium; conditions: 1% carbohydrate in sMRS+cysteine
Experimental: (§1) Coy Laboratory Products, Grass Lake, Mich.). Subsequently, the cultures are passed twice on a semi-synthetic MRS medium ([…] which is supplemented with 1% (w/v) filter-sterilized glucose as the sole carbohydrate source. […] For bifidobacteria strains, the same procedure is followed except all media are supplemented with 0.5 g/l L-cysteine/HCl. [table] After the 2nd pass in sMRS+glucose+cysteine, the cultures are washed once with 10 mL of sterile sMRS+cysteine (no carbohydrate), resuspended in 10 ml of sterile sMRS+cysteine (no carbohydrate) and then used as a 1% inoculum. The carbohydrates are sterilized with a 0.22 micron filter and used at a 1% final concentration. Cell growth is performed in 250 μL of sMRS+cysteine covered with 50 μL of mineral oil in a Bioscreen 100-well Honeycomb plate. […] The plate reader is operated in discontinuous mode, with absorbance readings performed in 30-minute intervals, and preceded by 30-second shaking intervals at maximum speed. Controls consist of inoculated medium lacking carbohydrate. […] All three plates include a positive control (glucose) and negative control (no carbohydrate). The OD600 data for each carbohydrate is corrected by subtracting the OD600 of the basal media (sMRS)+cysteine from the sample plate for each probiotic. Maximum OD is determined by inspection of the corrected growth data. OD is determined by subtracting the initial corrected OD (time point 0) from the maximum corrected OD. Samples are grown in biologically independent triplicates and the resulting growth kinetic data are expressed as the mean of these replicates. For the growth curve plots, OD600 vs. time is first plotted for the bacteria grown on medium lacking carbohydrate (sMRS). For all other carbohydrates, the OD600 data is corrected by subtracting the OD600 of sMRS.

B. breve ATCC 15700 = experiment: Bacterial growth assay (OD600); assay type: cell-based, Bifidobacterium breve; conditions: 1% carbohydrate in sMRS+cysteine
Experimental: Coy Laboratory Products, Grass Lake, Mich.). Subsequently, the cultures are passed twice on a semi-synthetic MRS medium ([…] which is supplemented with 1% (w/v) filter-sterilized glucose as the sole carbohydrate source. […] For bifidobacteria strains, the same procedure is followed except all media are supplemented with 0.5 g/l L-cysteine/HCl. […] After the 2nd pass in sMRS+glucose+cysteine, the cultures are washed once with 10 mL of sterile sMRS+cysteine (no carbohydrate), resuspended in 10 ml of sterile sMRS+cysteine (no carbohydrate) and then used as a 1% inoculum. The carbohydrates are sterilized with a 0.22 micron filter and used at a 1% final concentration. Cell growth is performed in 250 μL of sMRS+cysteine covered with 50 μL of mineral oil in a Bioscreen 100-well Honeycomb plate. […] The plate reader is operated in discontinuous mode, with absorbance readings performed in 30-minute intervals, and preceded by 30-second shaking intervals at maximum speed. Controls consist of inoculated medium lacking carbohydrate. […] Maximum OD is determined by inspection of the corrected growth data. OD is determined by subtracting the initial corrected OD (time point 0) from the maximum corrected OD. Samples are grown in biologically independent triplicates and the resulting growth kinetic data are expressed as the mean of these replicates. […]

B. infantis ATCC 15697 = experiment: Bacterial growth assay (OD600); assay type: cell-based, Bifidobacterium infantis; conditions: 1% carbohydrate in sMRS+cysteine
Experimental: as §1

B. infantis M-63 = experiment: Bacterial growth assay (OD600); assay type: cell-based, Bifidobacterium infantis; conditions: 1% carbohydrate in sMRS+cysteine
Experimental: as §1

HT-29 cells [1] = experiment: Alkaline phosphatase activity per milligram of protein (cell differentiation), HT-29; assay type: cell-based, human; conditions: Example 48: LNnT or 2′FL 20, 200, 2000 mg/L; 6′SL 40, 400; 72 hours
Experimental: (§2) In a first experiment, HT-29 cells, which model the immature epithelial cells of the small intestine, are incubated in a humidified atmosphere of 5% carbon dioxide at 37° C. in the presence of LNnT or 2′FL at concentrations of 0 mg/L (“0”), 20 mg/L (“20”), 200 mg/L (“200”), and 2000 mg/L (“2000”) or in the presence of 6′SL at concentrations of 0 mg/mL (“0”), 40 mg/mL (“40”), 400 mg/mL (“400”), and 4000 mg/mL (“4000”) for 72 hours. The culture medium utilized is Dulbecco's Modified Eagle Medium (Life Technologies, Foster City Calif.) supplemented with 10% fetal calf serum and 2 mM glutamine. The controls (“energy”) consist of 91.5 mg lactose and 64.2 mg N-acetyllactosamine/L for LNnT; 133 mg lactose and 67 mg fucose/L for 2′FL; and 195 mg lactose and 205 mg/L sialic acid for 6′SL. The impact of the LNnT, 2′FL, and 6′SL at various levels and the controls on HT-29 cell proliferation is measured using a conventional BrdU assay, which measures the number of cells that have recently synthesized DNA. […] Additionally, the impact of LNnT, 2′FL, and 6′SL at various levels and the controls on the alkaline phosphatase activity per milligram of protein for HT-29 cells, which is an indicator of cell differentiation, is measured.

Caco-2 cells = experiment: Alkaline phosphatase activity per milligram of protein (cell differentiation), Caco-2; assay type: cell-based, human; conditions: Example 48: LNnT or 2′FL 20, 200, 2000 mg/L; 6′SL 40, 400, 4000 mg/mL; 72 hours
Experimental: In a second experiment, Caco-2 cells, which model more mature epithelial cells of the small intestine, are incubated in a humidified atmosphere of 5% carbon dioxide at 37° C. in the presence of LNnT or 2′FL at concentrations of 0 mg/L (“0”), 20 mg/L (“20”), 200 mg/L (“200”), and 2000 mg/L (“2000”) or in the presence of 6′SL at concentrations of 0 mg/mL (“0”), 40 mg/mL (“40”), 400 mg/mL (“400”), and 4000 mg/mL (“4000”) for 72 hours. The culture medium utilized is Dulbecco's Modified Eagle Medium (Life Technologies, Foster City Calif.) supplemented with 10% fetal calf serum and 2 mM glutamine. The controls (“energy”) consist of 91.5 mg lactose and 64.2 mg N-acetyllactosamine/L for LNnT; 133 mg lactose and 67 mg fucose/L for 2′FL; and 195 mg lactose and 205 mg sialic acid/L for 6′SL. The impact of the LNnT, 2′FL, and 6′SL at various levels and the control on Caco-2 cell proliferation is measured using a conventional BrdU assay, which measures the number of cells that have recently synthesized DNA. […] Additionally, the impact of LNnT, 2′FL, and 6′SL at various levels and the controls on the alkaline phosphatase activity per milligram of protein for Caco-2 cells, which is an indication of cell differentiation, is measured.

infant fecal bacteria = experiment: In vitro substrate fermentation model with infant feces (pH, SCFA, lactate); assay type: cell-based, human infant
HT-29 cells [2] = experiment: HT-29 cell proliferation, BrdU assay; assay type: cell-based, human; conditions: Example 48: LNnT or 2′FL 20, 200, 2000 mg/L; 6′SL 40, 400; 72 hours; sodium salt
Experimental: In a first experiment, HT-29 cells, which model the immature epithelial cells of the small intestine, are incubated in a humidified atmosphere of 5% carbon dioxide at 37 C in the presence of LNnT at concentrations of 0 mg/L (“0”), 100 mg/L (“100”), 200 mg/L (“200”), and 400 mg/L (“400”) for either 48 hours or 72 hours. The culture medium utilized is Dulbecco's Modified Eagle Medium (Life Technologies, Foster City Calif.) supplemented with 10% fetal calf serum and 2 mM glutamine. The control consists of a combination of 91.5 mg lactose and 62.4 mg galactosamine (“LG”) per Liter of the Dulbecco's Modified Eagle Medium set forth above. The impact of the LNnT at various levels and the control on HT-29 cell proliferation is measured using a conventional BrdU assay, which measures the number of cells that have recently synthesized DNA.
as §2

Bifidobacterium spp. = experiment: qPCR of bacterial populations in in vitro fecal fermentation; assay type: cell-based; conditions: overall, 0-12 h fermentation; sodium salt

OC[C@H]1O[C@@H](O[C@H]2[C@H](O)[C@@H](O)C(O)O[C@@H]2CO)[C@H](O)[C@@H](O)[C@H]1O (stereo partly drawn) [lactose]
growth / ability to ferment (OD600) (bifidobacteria strains): the bifidobacteria, which is not able to ferment galactose, also has reduced growth on lactose

CC(=O)N[C@@H]1[C@@H](O)[C@H](O)[C@@H](CO)O[C@H]1O [NAG, reference compound]
growth / ability to ferment (OD600) (B. breve ATCC 15700): able to ferment | growth / ability to ferment (OD600) (bifidobacteria strains): Only B. breve ATCC 15700 is able to ferment

CC(=O)N[C@H]1[C@H]([C@H](O)[C@H](O)CO)O[C@@](O[C@H]2[C@@H](O)[C@@H](CO)O[C@@H](O[C@H]3[C@H](O)[C@@H](O)C(O)O[C@@H]3CO)[C@@H]2O)(C(=O)O)C[C@@H]1O (stereo partly drawn) [3′SL, 3′-Sialyllactose]
growth / ability to ferment (OD600) (B. infantis ATCC 15697): able to ferment | growth / ability to ferment (OD600) (B. infantis M-63): able to ferment | growth / ability to ferment (OD600) (bifidobacteria strains): only B. infantis ATCC 15697 and B. infantis M-63 are able to ferment

C[C@H](O)[C@@H](O)[C@@H](O)[C@H](O)C=O [L-fucose, reference compound]
growth / ability to ferment (OD600) (B. infantis ATCC 15697): not able to ferment | growth / ability to ferment (OD600) (B. infantis M-63): not able to ferment | growth / ability to ferment (OD600) (bifidobacteria strains): None of the bifidobacteria are able to ferment

O=C(CO)[C@@H](O)[C@H](O)[C@H](O)CO [fructose]
growth / ability to ferment (OD600) (bifidobacteria strains): majority of bifidobacteria is able to ferment

CC(=O)N[C@H]1C([C@H](O)[C@H](O)CO)O[C@@](OCC2O[C@@H](O[C@@H]3C(CO)OC(O)C(O)[C@H]3O)C(O)[C@@H](O)[C@H]2O)(C(=O)[O-])C[C@H]1O.[Na+] (stereo in doubt) [6′SL, α-(2-6′)-N-Acetylneuraminyl-lactose sodium salt]
alkaline phosphatase activity per milligram of protein (cell differentiation) (HT-29 cells [1]): no apparent effect | growth / ability to ferment (OD600) (B. infantis ATCC 15697): able to ferment | growth / ability to ferment (OD600) (B. infantis M-63): able to ferment | alkaline phosphatase activity per milligram of protein (cell differentiation) (Caco-2 cells): no apparent effect | fermentation rate (infant fecal bacteria): about 1,809 μg/g of dry matter/hour | acetate production (infant fecal bacteria; 3 and 6 h): intermediate | acetate production, formula fed versus breast fed infants (infant fecal bacteria; 12 h): greater | propionate production (infant fecal bacteria; 12 h of fermentation): large increase | total SCFA production (infant fecal bacteria; 12 h of fermentation, sodium salt): greater (P<0.05); also recorded: substantial amounts of SCFA | total SCFA production (infant fecal bacteria; after 3 and 6 h of fermentation): lower (P<0.05) with 6′SL compared to GOS | total SCFA production, formula fed versus breast fed infants (infant fecal bacteria; after 6 and 12 h of fermentation): greater (P=0.01) fermentation by formula fed infants | propionate production (infant fecal bacteria; overall): greater (P<0.0001) propionate production than all other substrates | fermentability by infant fecal bacteria (infant fecal bacteria; overall, sodium salt): highly fermentable; also recorded: readily fermented | lactate accumulation (infant fecal bacteria; up to 12 h, sodium salt): no lactate accumulation; also recorded: little lactate had accumulated | growth / ability to ferment (OD600) (bifidobacteria strains): only B. infantis ATCC 15697 and B. infantis M-63 are able to ferment | HT-29 cell proliferation (HT-29 cells [2]): capable of reducing cell proliferation at higher doses; also recorded: inhibits intestinal cell proliferation in immature epithelial cells | bifidobacteria populations (Bifidobacterium spp.): may also be bifidogenic; also recorded: tended to generally increase bifidobacteria levels
